The results in this text go back to PubChem BioAssay (NCI).

Among the test systems are CCRF-CEM leukemia; COLO 205 colon; HCT-116 colon; HT29 colon; MALME-3M melanoma; NCI-H226 lung; NCI-H522 lung; SF-539 CNS; SK-MEL-5 melanoma; SR leukemia.
Holding throughout (assay): NCI anticancer screen, dose series, 48 h

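A five-concentration, 48-hour dose response in 96-well plates underlies each endpoint, interpolated linearly between surrounding concentrations. Here, GI50 denotes the concentration required for 50% inhibition of growth. TGI: concentration producing complete growth inhibition.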

For `CCN(CC)CCNC(=O)C(Cl)=C1C(Cl)=C(Cl)C(Cl)=C1Cl`, the GI50 is 3.15 µM in the test with CCRF-CEM leukemia; 4.21 µM in the test with COLO 205 colon; 1.78 µM in the test with HCT-116 colon; 3.49 µM in the test with HT29 colon; 11.9 µM with MALME-3M melanoma; 4.08 µM in the test with NCI-H226 lung. The GI50 was 1.47 µM in the test with NCI-H522 lung, 4.33 µM in the test on SF-539 CNS, 2.98 µM with SK-MEL-5 melanoma and 3.36 µM in the test on SR leukemia. Besides, the TGI in the test on CCRF-CEM leukemia is > 100 µM; in the test on COLO 205 colon it was 13.4 µM; in the test on HCT-116 colon it was 4.4 µM; with HT29 colon, 12.2 µM; in the test with MALME-3M melanoma it was 47.3 µM; in the test on NCI-H226 lung it was 35.8 µM. Further, the TGI in the test with NCI-H522 lung is 3.21 µM; in the test on SF-539 CNS, 53.1 µM; in the test with SK-MEL-5 melanoma it was 11.1 µM; with SR leukemia it was > 100 µM.

As for `O=C1CCCCCCCCCCOC(=O)CCCCCCCCCCO1`, the TGI in the test on CCRF-CEM leukemia, in the test with COLO 205 colon, in the test with HCT-116 colon, with HT29 colon, in the test on MALME-3M melanoma and with NCI-H226 lung was > 100 µM throughout. For the same compound, the TGI in the test on NCI-H522 lung, in the test on SF-539 CNS, with SK-MEL-5 melanoma and with SR leukemia was > 100 µM throughout.

On to `COC(=O)c1cc2c(nc1C)-c1ccccc1OS2(=O)=O`, for which the TGI in the test on CCRF-CEM leukemia, with COLO 205 colon, in the test on HCT-116 colon, with HT29 colon, with MALME-3M melanoma and in the test on NCI-H226 lung was > 100 µM each time. The TGI in the test with NCI-H522 lung, with SF-539 CNS, with SK-MEL-5 melanoma and in the test on SR leukemia was > 100 µM in each case.

For the compound `CCN(CC)CC(O)c1cc(-c2ccc(Cl)cc2)nc2cc(Cl)ccc12` (stereo not given), the GI50 with CCRF-CEM leukemia was 2.52 µM; in the test with COLO 205 colon it was 1.65 µM; in the test on HCT-116 colon, 1.65 µM; in the test with HT29 colon, 1.71 µM; in the test on MALME-3M melanoma, 1.78 µM; with NCI-H226 lung it was 2.21 µM. In addition, the GI50 is 1.62 µM with NCI-H522 lung, 2.03 µM in the test on SF-539 CNS, 1.61 µM with SK-MEL-5 melanoma and 1.69 µM in the test with SR leukemia. In addition, the TGI in the test with CCRF-CEM leukemia was found to be 5.56 µM; with COLO 205 colon it was 3.34 µM; in the test on HCT-116 colon it was 3.15 µM; with HT29 colon, 3.66 µM; with MALME-3M melanoma it was 3.62 µM; with NCI-H226 lung it was 7.15 µM. In addition, the TGI worked out at 3.14 µM in the test with NCI-H522 lung, 4.63 µM with SF-539 CNS, 2.99 µM in the test on SK-MEL-5 melanoma and 3.52 µM in the test on SR leukemia.

With `CCC1OC(=O)CC(O)C(C)C(OC2OC(C)CC(N(C)C)C2O)C(CC=O)CC(C)C(=O)/C=C/C2(C)OC2C1C` (stereo not given), the TGI turned out to be 26.2 µM in the test on CCRF-CEM leukemia; 32.2 µM in the test on COLO 205 colon; 31.6 µM in the test on HCT-116 colon; 38.3 µM with HT29 colon; 64.9 µM with MALME-3M melanoma; 49.6 µM in the test on NCI-H226 lung. The TGI in the test with NCI-H522 lung came to 54.9 µM; in the test on SF-539 CNS, 29.6 µM; in the test on SK-MEL-5 melanoma, 29.3 µM; in the test on SR leukemia it was 36.6 µM.

On to `Oc1[nH]c2ccccc2c1/C=c1/ccc2c(c1)N=C(c1cc(F)cc(F)c1)N=2`, for which the GI50 with CCRF-CEM leukemia is 2.44 µM; in the test with COLO 205 colon, 8.45 µM; in the test on HCT-116 colon, 2.43 µM; with HT29 colon, 3.6 µM; in the test on MALME-3M melanoma, 10.1 µM; with NCI-H226 lung, 11.4 µM. For the same compound, the GI50 in the test on NCI-H522 lung is 3.64 µM; in the test on SF-539 CNS it was 13.6 µM; with SK-MEL-5 melanoma it was 5.82 µM; in the test with SR leukemia, 2.43 µM. For the same compound, the TGI in the test on CCRF-CEM leukemia is 6.91 µM; in the test with COLO 205 colon, 23.4 µM; in the test with HCT-116 colon, 8.06 µM; with HT29 colon, 16.2 µM; in the test on MALME-3M melanoma, 28.3 µM; in the test on NCI-H226 lung, 34.5 µM. Besides, the TGI in the test with NCI-H522 lung came to 18.6 µM; in the test with SF-539 CNS it was 31.4 µM; with SK-MEL-5 melanoma, 19.1 µM; with SR leukemia it was 9.21 µM.

Consider `Cc1cc(Cl)ccc1Nc1nc2c(s1)C(=O)c1ccccc1C2=O`, for which the TGI in the test on CCRF-CEM leukemia is > 26.3 µM; in the test with COLO 205 colon, 16.8 µM; in the test on HCT-116 colon, 5.25 µM; in the test on HT29 colon, 54.6 µM; in the test with MALME-3M melanoma it was 2.92 µM; in the test on NCI-H226 lung it was 13.7 µM. For the same compound, the TGI in the test with NCI-H522 lung was determined as 4.08 µM; in the test on SF-539 CNS it was 16 µM; in the test with SK-MEL-5 melanoma it was 3.34 µM; in the test on SR leukemia, 10.8 µM.

Consider `Nc1nc(-c2ccc3ccccc3c2)cc(-c2cc(-c3ccc4ccccc4c3)nc(N)n2)n1`, for which the TGI in the test with CCRF-CEM leukemia, in the test with COLO 205 colon, in the test on HCT-116 colon, in the test with HT29 colon, in the test with MALME-3M melanoma and in the test with NCI-H226 lung was > 100 µM in each case. The TGI in the test with NCI-H522 lung, in the test on SF-539 CNS, in the test on SK-MEL-5 melanoma and with SR leukemia was > 100 µM throughout.

Regarding `Cc1cc2nc3c4cc([N+](=O)[O-])ccc4n(CCN(C)C)c3nc2cc1C`, the GI50 in the test on CCRF-CEM leukemia is 0.642 µM; in the test on COLO 205 colon, 0.363 µM; in the test on HCT-116 colon, 0.353 µM; in the test on HT29 colon, 0.387 µM; in the test on MALME-3M melanoma, 0.527 µM; in the test on NCI-H226 lung it was 0.966 µM. For the same compound, the GI50 is 0.893 µM in the test on NCI-H522 lung, 0.469 µM in the test with SF-539 CNS, 1.02 µM in the test with SK-MEL-5 melanoma and 0.253 µM in the test on SR leukemia. Besides, the TGI with CCRF-CEM leukemia amounted to 21.3 µM; in the test on COLO 205 colon, 2.48 µM; in the test with HCT-116 colon it was 2.84 µM; in the test with HT29 colon it was 2.33 µM; with MALME-3M melanoma it was 1.87 µM; with NCI-H226 lung it was 5.81 µM. The TGI in the test on NCI-H522 lung came to 4.94 µM; in the test with SF-539 CNS it was 2.56 µM; in the test on SK-MEL-5 melanoma it was 2.21 µM; with SR leukemia, 5.1 µM.
